Assay results from patent US5919769A, “Fucose derivatives, drugs containing the same as active ingredient, and intermediates for producing the same” (Kanebo, Ltd, priority 1995, dated 1999).
Structures can show the parent of a compound that is named as a salt.

Tests used:
[1] = target: P-selectin; assay: Inhibitory test on the binding of P-selectin to sialyl Le^X (selectin-IgG chimera); settings: inhibition of P-selectin IgG chimera binding to sialyl Le^X-pentaceramide
Experimental: Inhibitory test on the binding of P-selectin to sialyl Le^X :
(§1) The experiment was carried out according to the method using selectin-IgG chimera, which was reported by Foxall, C. et al. (J. Cell Biol., 117, 895-902 (1992)).
(§2) Sialyl Le^X -pentaceramide was dissolved in 50% methanol in distilled water, and the solution was put into a 96-well plate in an amount of 100 pmol/well. The plate was allowed to stand at room temperature overnight, and the solvent therein was evaporated. The plate was washed with distilled water, and subjected to blocking with 50 mM imidazole buffer (pH 7.2) containing 5% BSA (bovine serum albumin) and 1 mM calcium chloride at room temperature for one hour.
(§3) Separately, to 500-fold diluted solution of each biotinylated anti-human IgG Fc and streptavidin-alkaline phosphatase conjugate with a 50 mM imidazole buffer (pH 7.2) containing 1% BSA and 1 mM calcium chloride, P-selectin IgG chimera was added to give a final concentration of 40 μg/ml, and the mixture was incubated at room temperature for 30 minutes to give the complex solution.
(§4) A test compound was dissolved in DMSO (except that the test compound h was dissolved in distilled water) to give 10 mM aqueous solution thereof, which was serially diluted with 50 mM imidazole buffer (pH 7.2) containing 1% BSA and 1 mM calcium chloride to give the solutions in 8 various concentrations (two-fold serial dilution from 20 μM). The test compound solution in each concentration and the above complex solution were mixed in equal volume, and the mixture was incubated at room temperature for 30 minutes to give the reaction solution.
(§5) After the blocking was completed, the blocking solution in the above plate was discarded, and the plate was washed with 50 mM imidazole buffer (pH 7.2), and thereto was added the above reaction solution in an amount of 50 μl/well. The plate was incubated at 37° C. for 45 minutes, and then washed three times with 50 mM imidazole buffer (pH 7.2) and washed three times with distilled water. 1M diethanolamine (pH 9.8) containing 0.01% magnesium chloride and 1 mg/ml p-nitrophenyl phosphate was put into each well in an amount of 50 μl/well, and the plate was allowed to stand for 1 to 2 hours for color development. The absorbance at 405 nm was measured, and the binding rate (%) was calculated by the following equation, based on the absorbance (X) of the wells containing a test compound at various concentrations and the absorbance (A) of the wells containing no test compound.
(§6) IC50 was evaluated by probit method from the binding rate.

[2] = target: L-selectin; assay: Inhibitory test on the binding of L-selectin to sialyl Le^X (selectin-IgG chimera); settings: inhibition of L-selectin IgG chimera binding to sialyl Le^X-pentaceramide
Experimental: as §1, §2, §3, §4, §5, §6
Inhibitory test on the binding of L-selectin to sialyl Le^X :
The same procedures of Experiment 1 were repeated except that L-selectin IgG chimera (40 μg/ml) was used instead of P-selectin IgG chimera (40 μg/ml).

| IC50 [1] [nM] | IC50 [2] [nM] | IC50 ([1]; sodium salt) [nM] | IC50 ([2]; sodium salt) [nM] | SMILES |
| --- | --- | --- | --- | --- |
| 200 | 700 | – | – | CCCCCCCCCCCCCCC(CCCCCCCCCCCCCC)C(=O)N[C@@H](CS[C@@H]1O[C@@H](C)[C@@H](O)[C@@H](O)[C@@H]1O)C(=O)N[C@H](CCC(=O)O)C(=O)NC [compound r, [N-(2-tetradecylhexadecanoyl)-S-(α-L-fucopyranosyl)-L-cysteinyl]-D-glutamic acid 1-methylamide] |
| 1900 | 39000 | – | – | CCCCCCCCCCCCCCC(CCCCCCCCCCCCCC)C(=O)N[C@@H](CO[C@@H]1O[C@@H](C)[C@@H](O)[C@@H](O)[C@@H]1O)C(=O)N[C@@H](CCC(=O)O)C(=O)NC [compound i, [N-(2-tetradecylhexadecanoyl)-O-(α-L-fucopyranosyl)-L-seryl]-L-glutamic acid 1-methylamide] |
| – | – | 1200 | 300 | CCCCCCCCCCCCCCC(CCCCCCCCCCCCCC)C(=O)N[C@@H](CO[C@@H]1O[C@H]([C@H](C)O)[C@@H](O)[C@@H]1O)C(=O)N[C@H](CCC(=O)O)C(=O)NC [compound h, [N-(2-tetradecylhexadecanoyl)-O-(α-L-fucofuranosyl)-L-seryl]-D-glutamic acid 1-methylamide sodium salt] |
| 600 | 800 | – | – | CCCCCCCCCCCCCCC(CCCCCCCCCCCCCC)C(=O)N[C@@H](CO[C@H]1O[C@@H](C)[C@@H](O)[C@@H](O)[C@@H]1O)C(=O)N[C@@H](CCC(=O)O)C(=O)NC [compound m, [N-(2-tetradecylhexadecanoyl)-O-(β-L-fucopyranosyl)-L-seryl]-L-glutamic acid 1-methylamide] |
| 500 | 6000 | – | – | CCCCCCCCCCCCCCC(CCCCCCCCCCCCCC)C(=O)N[C@@H](CO[C@@H]1O[C@@H](C)[C@@H](O)[C@@H](O)[C@@H]1O)C(=O)N[C@H](CCC(=O)O)C(=O)NC [compound j, [N-(2-tetradecylhexadecanoyl)-O-(α-L-fucopyranosyl)-L-seryl]-D-glutamic acid 1-methylamide] |
| 1300 | 2200 | – | – | CCCCCCCCCCCCCCC(CCCCCCCCCCCCCC)C(=O)N[C@@H](CO[C@@H]1O[C@H]([C@H](C)O)[C@@H](O)[C@@H]1O)C(=O)N[C@@H](CCC(=O)O)C(=O)NC [compound a, [N-(2-tetradecylhexadecanoyl)-O-(α-L-fucofuranosyl)-L-seryl]-L-glutamic acid 1-methylamide] |
| 100 | 100 | – | – | CCCCCCCCCCCCCCC(CCCCCCCCCCCCCC)C(=O)N[C@H](CS[C@@H]1O[C@@H](C)[C@@H](O)[C@@H](O)[C@@H]1O)C(=O)N[C@@H](CCC(=O)O)C(=O)NC [compound s, [N-(2-tetradecylhexadecanoyl)-S-(α-L-fucopyranosyl)-D-cysteinyl]-L-glutamic acid 1-methylamide] |
| 2100 | 18000 | – | – | CCCCCCCCCCCCCCC(CCCCCCCCCCCCCC)C(=O)N[C@H](CO[C@@H]1O[C@@H](C)[C@@H](O)[C@@H](O)[C@@H]1O)C(=O)N[C@H](CCC(=O)O)C(=O)NC [compound l, [N-(2-tetradecylhexadecanoyl)-O-(α-L-fucopyranosyl)-D-seryl]-D-glutamic acid 1-methylamide] |
| 300 | 800 | – | – | CCCCCCCCCCCCCCC(CCCCCCCCCCCCCC)C(=O)N[C@@H](CO[C@H]1O[C@@H](C)[C@@H](O)[C@@H](O)[C@@H]1O)C(=O)N[C@H](CCC(=O)O)C(=O)NC [compound n, [N-(2-tetradecylhexadecanoyl)-O-(β-L-fucopyranosyl)-L-seryl]-D-glutamic acid 1-methylamide] |
| 1000 | 1000 | – | – | CCCCCCCCCCCCCCC(CCCCCCCCCCCCCC)C(=O)N[C@@H](CS[C@H]1O[C@@H](C)[C@@H](O)[C@@H](O)[C@@H]1O)C(=O)N[C@H](CCC(=O)O)C(=O)NC [compound u, [N-(2-tetradecylhexadecanoyl)-S-(β-L-fucopyranosyl)-L-cysteinyl]-D-glutamic acid 1-methylamide] |
| > 500000 | > 500000 | – | – | CC(=O)N[C@H]1[C@H]([C@H](O)[C@H](O)CO)O[C@@](O[C@H]2[C@@H](O)[C@@H](CO)O[C@@H](O[C@@H]([C@H](O[C@@H]3O[C@@H](C)[C@@H](O)[C@@H](O)[C@@H]3O)[C@H](C=O)NC(C)=O)[C@H](O)CO)[C@@H]2O)(C(=O)O)C[C@@H]1O [compound X, Sialyl Le^X, reference compound] |
| 100 | 1700 | – | – | CCCCCCCCCCCCCCC(CCCCCCCCCCCCCC)C(=O)N[C@@H](CO[C@@H]1O[C@H]([C@H](C)O)[C@@H](O)[C@@H]1O)C(=O)N[C@H](CCC(=O)O)C(=O)Nc1ccccc1 [compound g, [N-(2-tetradecylhexadecanoyl)-O-(α-L-fucofuranosyl)-L-seryl]-D-glutamic acid 1-anilide] |
| 200 | 500 | – | – | CCCCCCCCCCCCCCC(CCCCCCCCCCCCCC)C(=O)N[C@H](CO[C@@H]1O[C@H]([C@H](C)O)[C@@H](O)[C@@H]1O)C(=O)N[C@H](CCC(=O)O)C(=O)NC [compound d, [N-(2-tetradecylhexadecanoyl)-O-(α-L-fucofuranosyl)-D-seryl]-D-glutamic acid 1-methylamide] |
| 300 | 700 | – | – | CCCCCCCCCCCCCCC(CCCCCCCCCCCCCC)C(=O)N[C@H](CO[C@H]1O[C@@H](C)[C@@H](O)[C@@H](O)[C@@H]1O)C(=O)N[C@H](CCC(=O)O)C(=O)NC [compound p, [N-(2-tetradecylhexadecanoyl)-O-(β-L-fucopyranosyl)-D-seryl]-D-glutamic acid 1-methylamide] |
| 1000 | 1500 | – | – | CCCCCCCCCCCCCCC(CCCCCCCCCCCCCC)C(=O)N[C@@H](CO[C@@H]1O[C@H]([C@H](C)O)[C@@H](O)[C@@H]1O)C(=O)N[C@H](CCC(=O)O)C(=O)NC [compound b, [N-(2-tetradecylhexadecanoyl)-O-(α-L-fucofuranosyl)-L-seryl]-D-glutamic acid 1-methylamide] |
| 500 | 1800 | – | – | CCCCCCCCCCCCCCC(CCCCCCCCCCCCCC)C(=O)N[C@@H](CO[C@@H]1O[C@H]([C@H](C)O)[C@@H](O)[C@@H]1O)C(=O)NCCCC(=O)O [compound e, 4-N-[N-(2-tetradecylhexadecanoyl)-O-(α-L-fucofuranosyl)-L-seryl]aminobutyric acid] |
| 300 | 1600 | – | – | CCCCCCCCCCCCCCC(CCCCCCCCCCCCCC)C(=O)N[C@H](CO[C@H]1O[C@@H](C)[C@@H](O)[C@@H](O)[C@@H]1O)C(=O)N[C@@H](CCC(=O)O)C(=O)NC [compound o, [N-(2-tetradecylhexadecanoyl)-O-(β-L-fucopyranosyl)-D-seryl]-L-glutamic acid 1-methylamide] |
| 300 | 600 | – | – | CCCCCCCCCCCCCCC(CCCCCCCCCCCCCC)C(=O)N[C@H](CS[C@@H]1O[C@@H](C)[C@@H](O)[C@@H](O)[C@@H]1O)C(=O)N[C@H](CCC(=O)O)C(=O)NC [compound t, [N-(2-tetradecylhexadecanoyl)-S-(α-L-fucopyranosyl)-D-cysteinyl]-D-glutamic acid 1-methylamide] |
| 100 | 200 | – | – | CCCCCCCCCCCCCCC(CCCCCCCCCCCCCC)C(=O)N[C@@H](CS[C@@H]1O[C@@H](C)[C@@H](O)[C@@H](O)[C@@H]1O)C(=O)N[C@@H](CCC(=O)O)C(=O)NC [compound q, [N-(2-tetradecylhexadecanoyl)-S-(α-L-fucopyranosyl)-L-cysteinyl]-L-glutamic acid 1-methylamide] |
| 1200 | 2500 | – | – | CCCCCCCCCCCCCCC(CCCCCCCCCCCCCC)C(=O)N[C@@H](CO[C@@H]1O[C@H]([C@H](C)O)[C@@H](O)[C@@H]1O)C(=O)NCCCCC(=O)O [compound f, 5-N-[N-(2-tetradecylhexadecanoyl)-O-(α-L-fucofuranosyl)-L-seryl]aminovaleric acid] |
